“Also recorded” adds a separate entry of the source.

The source of these data is US20080226596A1, “Therapeutic compositions and methods useful in treating hepatitis” (priority 2006, published 2008).

The test system of one test is GSTm8. Put plainly: In vitro PTPase assay, GSTm8. The test is classed as biochemical. Conditions: 3-4 μg/ml or 10-100 μg/ml. An excerpt: (§1) In vitro PTPase assays were used to determine the effects of levamisole (Sigma), pentamidine (American Pharmaceutical Partners, Inc.), and ketoconazole (Sigma) on recombinant PTPases, following established procedures (Pathak et al., J. Imumol. 167, 3391 (2001); Pathak et al., Leukemia 16, 2285 (2002), Yi et al., J. Immunol. 169, 5978 (2002)) using a synthetic phosphotyrosine peptide or DiFMUP as the substrate as detailed above in section I.A.2.

The target of another test is T1, PRL-1 (Homo sapiens, UniProt Q93096).
T1 construct: GST (N); made in house; host or cells: DHSa (DH5a) bacteria
T1 sequence (Q93096 whole entry): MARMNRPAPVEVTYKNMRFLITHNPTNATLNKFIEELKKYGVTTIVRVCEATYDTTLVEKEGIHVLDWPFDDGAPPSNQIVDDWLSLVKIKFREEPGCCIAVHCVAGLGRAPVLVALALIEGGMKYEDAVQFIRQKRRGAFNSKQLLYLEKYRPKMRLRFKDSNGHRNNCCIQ
Put plainly: In vitro PTPase assay, recombinant PRL-1. In kind it is biochemical. Conditions: 0.1-100 μg/ml. An excerpt: (§2) Sodium stibogluconate, suramin, sodium orthovanadate and GST fusion protein of SHP-1 have been described previously (Pathak et al., J. Imumol. 167, 3391 (2001)). Meglumine antimonate was obtained from Aventis. cDNAs of human PRL-1, PRL-2 and PRL-3 coding region were derived by RT-PCR from H9 cells (Safai, et al., Lancet 1, 1438 (1984)) and inserted in frame into the pGEX vector. cDNA of PRL-1R86 was generated by recombinant DNA technique using PRL-1 cDNA as template following established procedures (Jiao, et al., Mol. Cell. Biol. 16, 6985 (1996)). […]
(§3) In vitro PTPase assays were used to determine the effects of compounds on recombinant PTPases, following established procedures using a synthetic phosphotyrosine peptide or DiFMUP as the substrate (Pathak et al., J. Imumol. 167, 3391 (2001)). […] PTPase activity of individual reactions was measured by adding 100 µL of malachite green solution (UBI) and then quantifying the amounts of free phosphate cleaved by the PTPase from the peptide substrate by spectrometry (OD660 nm). […] Relative PTPase activities were calculated based on the formula: (PTPase activity in the presence of an inhibitory compound/PTPase activity in the absence of the compound)× 100%. […]

The target of another test is T2, PRL-2 (Homo sapiens, UniProt Q12974).
T2 construct: GST (N); made in house; host or cells: DHSa (DH5a) bacteria
T2 sequence (Q12974 whole entry): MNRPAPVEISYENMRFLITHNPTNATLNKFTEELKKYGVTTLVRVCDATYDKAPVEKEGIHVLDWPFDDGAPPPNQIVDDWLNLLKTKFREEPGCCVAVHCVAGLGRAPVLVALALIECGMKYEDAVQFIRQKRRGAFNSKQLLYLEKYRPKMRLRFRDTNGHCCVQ
Put plainly: In vitro PTPase assay, recombinant PRL-2. The test is classed as biochemical.
Excerpt: as §2, §3

The target in the next test is T3, SHP-1 (Mus musculus, UniProt P29351).
T3 construct: made in house
T3 sequence (P29351 whole entry): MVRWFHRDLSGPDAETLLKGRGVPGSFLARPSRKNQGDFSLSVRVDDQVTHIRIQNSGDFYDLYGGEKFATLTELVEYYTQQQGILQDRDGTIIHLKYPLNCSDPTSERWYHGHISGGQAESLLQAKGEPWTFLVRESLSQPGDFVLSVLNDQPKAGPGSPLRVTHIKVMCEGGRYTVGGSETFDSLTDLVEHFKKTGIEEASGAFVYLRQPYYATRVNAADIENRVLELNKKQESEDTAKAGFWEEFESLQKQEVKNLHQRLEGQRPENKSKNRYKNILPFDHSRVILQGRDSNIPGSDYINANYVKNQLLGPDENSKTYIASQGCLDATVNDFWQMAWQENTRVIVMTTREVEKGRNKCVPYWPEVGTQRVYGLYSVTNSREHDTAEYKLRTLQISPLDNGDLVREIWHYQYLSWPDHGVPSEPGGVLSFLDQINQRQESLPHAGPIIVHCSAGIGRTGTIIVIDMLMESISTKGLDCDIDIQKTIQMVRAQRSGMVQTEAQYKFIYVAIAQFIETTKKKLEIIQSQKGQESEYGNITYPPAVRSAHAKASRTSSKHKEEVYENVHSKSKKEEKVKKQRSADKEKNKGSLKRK
Put plainly: In vitro PTPase assay, recombinant GST/SHP-1. In kind it is biochemical. Conditions: for inhibitory activity against SHP-1: 3-4 μg/ml or 10-100 μg/ml. As to the method:
In vitro PTPase activities were measured using the commercial protein tyrosine phosphatase assay kit (Upstate Biotechnology, Inc. (“UBI”)) following established procedure known to one of skill in the art. This assay measures the in vitro dephosphorylation of a synthetic phosphotyrosine peptide of the sequence Arg-Arg-Leu-Ile-Glu-Asp-Ala-Gle-Tyr-Ala-Ala-Arg-Gly, wherein the tyrosine is phosphorylated (SEQ ID NO: 3). Briefly, 0.01 µg of GST/PTPase fusion proteins was incubated in 50 μL of Tris buffer (10 mM Tris, pH 7.4) containing different concentrations of inhibitors or chemicals (0-1,000 μg/ml) at 22° C. for 10 minutes, followed by addition of 0.2 mM of the phosphotyrosine peptide and incubation at 22° C. for 18 hours. 100 μL of Malachite Green solution was added and incubated for 5 minutes, and the absorbance at 660 nm was measured after 5 minutes.
In vitro PTPase assays were used to determine the effects of compounds on recombinant PTPases, following established procedures using a synthetic phosphotyrosine peptide or DiFMUP as the substrate (Pathak et al., J. Imumol. 167, 3391 (2001)). Briefly, individual PTPases (0.1 µg/reaction) in 50 μL of PTPase buffer (50 mM Tris, pH 7.4) were incubated at 22° C. for 10 minutes or as indicated in the absence or presence of inhibitory compounds. Substrates (0.2 mM phosphotyrosine peptide) were then added and allowed to react at 22° C. for 18 hrs. PTPase activity of individual reactions was measured by adding 100 µL of malachite green solution (UBI) and then quantifying the amounts of free phosphate cleaved by the PTPase from the peptide substrate by spectrometry (OD660 nm). PTPase assays using DiFMUP as a substrate were conducted following a previously described procedure (Matter, et al., Biochem. Biophys. Res. Comm. 283, 1061 (2001)). Relative PTPase activities were calculated based on the formula: (PTPase activity in the presence of an inhibitory compound/PTPase activity in the absence of the compound)× 100%. To assess the reversibility of PTPase inhibition, GST fusion proteins of the PTPases bound on glutathione beads (Pharmacia) were pre-incubated with cold Tris buffer (50 mM Tris, pH 7.0) or Tris buffer containing the inhibitor at 4° C. for 30 minutes. The beads were then washed three times in cold Tris buffer or not washed prior to subjecting to in vitro PTPase assays.
as §1

In the next test the test system is NB4 cells. Put plainly: NB4 cell cycle analysis. The note with it: 3 days; sodium stibogluconate 250 μg/ml, ATRA 1 μM. In kind it is cell-based, human. As to the method: The cell cycle was analyzed by flow cytometry after 3 days of culture of NB4 cells in the absence or presence of sodium stibogluconate (250 µg/ml) or ATRA (1 μM). Briefly, the cells were fixed in cold ethanol and incubated for 30 minutes at 4° C. in the dark with a solution of 50 […], 1 mg/ml RNase and 0.1% NP-40. Analysis was performed immediately after staining using the CELLFIT program (Becton Dickinson, Mountain View, Calif.).

For a further test, the system named is LoVo cells. Put plainly: LoVo colon cancer cell growth, MTT assay. The test is classed as cell-based, human. Conditions: 100 μg/ml, day 6. As to the method:
NIH3T3 (Yi, et al., Blood 85, 87 (1995)), WM9 (Forsberg, et al., Proc. Nat. Acad Sci. USA 90, 393 (1993)), DU145 (Mickey, et al., Cancer Res. 37, 4049 (1977)), LoVo (Drewinko, et al., Cancer Res. 36, 467 (1976)), HEY (Buick, et al., Cancer Res. 45, 3668 (1985)), U251 (Yoshida, et al., Cancer 50, 410 (1982)), A549 (Giard, et al., J. Natl. Cancer Inst. 51, 1417 (1973)) and SK-N-SH (Helson, et al., Cancer Res. 35, 2594 (1975)) cell lines have been described and were cultured in RPMI 1640 supplemented with 10% fetal calf serum (FCS). For measurement of sodium stibogluconate effects on cell growth in vitro, cells were cultured in the absence (−) or presence (+) of various amounts of sodium stibogluconate for 6 days with viable cells quantified by MTT assays (Mosmann, J. Immunol. Methods 65, 55 (1983)). Percentages of growth inhibition by sodium stibogluconate were calculated (.+−.x

As for `CC(=O)N1CCN(c2ccc(OCC3COC(Cn4ccnc4)(c4ccc(Cl)cc4Cl)O3)cc2)CC1` (centres unmarked) [ketoconazole], the “inhibitory activity against GSTm8” value in the test with GSTm8 is “no obvious inhibitory activity”. The “PRL-1 PTPase activity retained” value at PRL-1 was 60-70%. For the same compound, the “effect against PRL-2” value at PRL-2 is “not effective”. The “inhibitory activity against SHP-1” value on SHP-1 is recorded as “no obvious inhibitory activity”.
For the compound `N=C(N)c1ccc(OCCCCCOc2ccc(C(=N)N)cc2)cc1` [pentamidine], the “inhibitory activity against GSTm8” value in the test on GSTm8 was “no obvious inhibitory activity”. Also, the “PRL-1 PTPase activity retained” value at PRL-1 is recorded as 70-80%. Moreover, the “effect against PRL-2” value on PRL-2 is given as “not effective”. At SHP-1, the “inhibitory activity against SHP-1” value is “no obvious inhibitory activity”.
Take `O.O.O.O.O.O.O.O.O.O=C([O-])[C@@H]1[O][Sb]2([O-])([O][Sb]34([OH])[O][C@H]([C@H](O)CO)[C@H]([O]3)[C@H](C(=O)[O-])[O]4)[O][C@H]([C@H](O)CO)[C@@H]1[O]2.[Na+].[Na+].[Na+]` [sodium stibogluconate]: in the test on NB4 cells, the “NB4 cell cycle effect” value is recorded as “significant increase of cells at S phase”. Further, the “killing of LoVo cells” value in the test on LoVo cells is on record as “near-complete cell killing”. Moreover, the “SHP-1 phosphatase activity” value on SHP-1 (10 μg/ml) is “almost completely inhibited; also recorded: inactivated SHP-1”.
